Experimental data: patent US9505786B2, “Substituted annulated triazines and use thereof” (BAYER INTELLECTUAL PROPERTY GMBH, priority 2012, dated 2016)

Experiments:
aorta rings = assay: Vasorelaxant effect in vitro (phenylephrine-contracted aorta rings); settings: Oryctolagus cuniculus, rabbit aorta rings, organ bath, phenylephrine contraction; read-out: IC50 (concentration needed to reduce the phenylephrine contraction by 50%)
Method: B-1. Vasorelaxant Effect In Vitro
Rabbits are stunned by a blow to the neck and exsanguinated. The aorta is removed, freed from adhering tissue and divided into rings of a width of 1.5 mm. The rings are placed individually under an initial tension in 5 ml organ baths with Krebs-Henseleit solution which is at 37° C., is gassed with carbogen and has the following composition (in each case mM): sodium chloride: 119; potassium chloride: 4.8; calcium chloride dihydrate: 1; magnesium sulphate heptahydrate: 1.4; potassium dihydrogenphosphate: 1.2; sodium bicarbonate: 25; glucose: 10. The contractile force is determined with Statham UC2 cells, amplified and digitalized using A/D transducers (DAS-1802 HC, Keithley Instruments Munich), and recorded in parallel on linear recorders.
To produce a contraction, phenylephrine is added to the bath cumulatively in increasing concentration. After several control cycles, the substance to be investigated is added in each further run in increasing dosage in each case, and the height of the contraction achieved is compared with the height of the contraction reached in the last preceding run. This is used to calculate the concentration needed to reduce the magnitude of the control value by 50% (IC50 value). The standard administration volume is 5 μl; the DMSO content in the bath solution corresponds to 0.1%.

[1] = test system: recombinant guanylate cyclase reporter cell line; assay: Effect on a recombinant guanylate cyclase reporter cell line; type: cell-based
Method: B-2. Effect on a Recombinant Guanylate Cyclase Reporter Cell Line
The cellular activity of the compounds according to the invention is determined using a recombinant guanylate cyclase reporter cell line, as described in F. Wunder et al., Anal. Biochem. 339, 104-112 (2005).

[2] = biological target: human phosphodiesterase 5 (PDE 5) (Homo sapiens (Human), UniProt O76074); assay: Inhibition of human phosphodiesterase 5 (PDE 5), SPA assay; type: biochemical; settings: PDE 5 preparation from human platelets, [8-3H] cGMP substrate
Method: B-6. Inhibition of Human Phosphodiesterase 5 (PDE 5)
PDE 5 preparations are obtained from human platelets by disruption (Microfluidizer®, 800 bar, 3 passes), followed by centrifugation (75 000 g, 60 min, 4° C.) and ion exchange chromatography of the supernatant on a Mono Q 10/10 column (linear sodium chloride gradient, elution with a 0.2-0.3M solution of sodium chloride in buffer (20 mM Hepes pH 7.2, 2 mM magnesium chloride). Fractions having PDE 5 activity are combined (PDE 5 preparation) and stored at −80° C.
To determine their in vitro action on human PDE 5, the test substances are dissolved in 100% DMSO and serially diluted. Typically, dilution series (1:3) from 200 μM to 0.091 μM are prepared (resulting final concentrations in the test: 4 μM to 0.0018 μM). In each case 2 μl of the diluted substance solutions are placed into the wells of microtitre plates (Isoplate-96/200W; Perkin Elmer). Subsequently, 50 μl of a dilution of the above-described PDE 5 preparation are added. The dilution of the PDE 5 preparation is chosen such that during the later incubation less than 70% of the substrate are converted (typical dilution: 1:100; dilution buffer: 50 mM Tris/hydrochloric acid pH 7.5, 8.3 mM magnesium chloride, 1.7 mM EDTA, 0.2% BSA). The substrate, [8-^3H] cyclic guanosine-3′,5′-monophosphate (1 μCi/μl; Perkin Elmer) is diluted 1:2000 with assay buffer (50 mM tris/hydrochloric acid pH 7.5, 8.3 mM magnesium chloride, 1.7 mM EDTA) to a concentration of 0.0005 μCi/μl. By addition of 50 μl (0.025 μCi) of the diluted substrate, the enzyme reaction is finally started. The test mixtures are incubated at room temperature for 60 min and the reaction is stopped by adding 25 μl of a suspension of 18 mg/ml yttrium scintillation proximity beads in water (phosphodiesterase beads for SPA assays, RPNQ 0150, Perkin Elmer). The microtitre plates are sealed with a film and left to stand at room temperature for 60 min. Subsequently, the plates are analysed for 30 s per well in a Microbeta scintillation counter (Perkin Elmer). IC50 values are determined using the graphic plot of the substance concentration against percentage PDE 5 inhibition.

Structure (SMILES) | IC50 (aorta rings) [nM] | MEC (minimum effective concentration) [1] [nM] | IC50 [2] [nM]
CC1(C)C(=O)Nc2nc(-c3nn(Cc4ccccc4F)c4ncccc34)nc(CCCC(F)(F)F)c21 [Example 30, 2-[1-(2-Fluorobenzyl)-1H-pyrazolo[3,4-b]pyridin-3-yl]-5,5-dimethyl-4-(4,4,4-trifluorobutyl)-5,7-dihydro-6H-pyrrolo[2,3-d]pyrimidin-6-one] | 415 | 100 | 130
CC1(C)C(=O)Nc2nc(-c3nn(Cc4ccccc4F)c4ncc(F)cc34)nc(CN)c21.O=CO [Example 44, 4-(Aminomethyl)-2-[5-fluoro-1-(2-fluorobenzyl)-1H-pyrazolo[3,4-b]pyridin-3-yl]-5,5-dimethyl-5,7-dihydro-6H-pyrrolo[2,3-d]pyrimidin-6-one formate] | 501 | 30 | 870
CC1(C)C(=O)Nc2nc(-c3nn(Cc4ccccc4F)c4ncccc34)nc(/C=C\C3CC3)c21 [Example 18, 4-[(Z)-2-Cyclopropylvinyl]-2-[1-(2-fluorobenzyl)-1H-pyrazolo[3,4-b]pyridin-3-yl]-5,5-dimethyl-5,7-dihydro-6H-pyrrolo[2,3-d]pyrimidin-6-one] | 836 | 100 | 150
CCOCCC1(C)C(=O)Nc2nc(-c3nn(Cc4ccccc4F)c4ncc(F)cc34)nnc21 (stereo not drawn) [Example 13, 7-(2-Ethoxyethyl)-3-[5-fluoro-1-(2-fluorobenzyl)-1H-pyrazolo[3,4-b]pyridin-3-yl]-7-methyl-5,7-dihydro-6H-pyrrolo[2,3-e][1,2,4]triazin-6-one] | 1590 | 100 | 660
CC1(C)C(=O)Nc2nc(-c3nn(Cc4ccccc4F)c4ncccc34)nc(CCC3CC3)c21 [Example 17, 4-(2-Cyclopropylethyl)-2-[1-(2-fluorobenzyl)-1H-pyrazolo[3,4-b]pyridin-3-yl]-5,5-dimethyl-5,7-dihydro-6H-pyrrolo[2,3-d]pyrimidin-6-one] | 2380 | 100 | 260
CCC1(C)C(=O)Nc2nc(-c3nn(Cc4ccccc4F)c4ncc(F)cc34)nnc21 (racemic) [Example 7, 7-Ethyl-3-[5-fluoro-1-(2-fluorobenzyl)-1H-pyrazolo[3,4-b]pyridin-3-yl]-7-methyl-5,7-dihydro-6H-pyrrolo[2,3-e][1,2,4]triazin-6-one (racemate)] | 41 | 30 | 340
CC1(C)C(=O)Nc2nc(-c3nn(Cc4ccccc4F)c4ncc(F)cc34)nc(CCC(F)(F)F)c21 [Example 58, 2-[5-Fluoro-1-(2-fluorobenzyl)-1H-pyrazolo[3,4-b]pyridin-3-yl]-5,5-dimethyl-4-(3,3,3-trifluoropropyl)-5,7-dihydro-6H-pyrrolo[2,3-d]pyrimidin-6-one] | 9800 | 300 | 660
CC1(C)C(=O)Nc2nc(-c3nn(Cc4ccccc4F)c4ncccc34)nc(C#CC3CC3)c21 [Example 16, 4-(Cyclopropylethynyl)-2-[1-(2-fluorobenzyl)-1H-pyrazolo[3,4-b]pyridin-3-yl]-5,5-dimethyl-5,7-dihydro-6H-pyrrolo[2,3-d]pyrimidin-6-one] | 617 | 30 | 410
CCCc1nc(-c2nn(Cc3ccccc3F)c3ncccc23)nc2c1C(C)(C)C(=O)N2 [Example 32, 2-[1-(2-Fluorobenzyl)-1H-pyrazolo[3,4-b]pyridin-3-yl]-5,5-dimethyl-4-propyl-5,7-dihydro-6H-pyrrolo[2,3-d]pyrimidin-6-one] | 244 | 100 | 110
CC1(c2nncs2)C(=O)Nc2nc(-c3nn(Cc4ccccc4F)c4ncccc34)ncc21 (racemic) [Example 34, (rac) 2-[1-(2-Fluorobenzyl)-1H-pyrazolo[3,4-b]pyridin-3-yl]-5-methyl-5-(1,3,4-thiadiazol-2-yl)-5,7-dihydro-6H-pyrrolo[2,3-d]pyrimidin-6-one] | 218 | 30 | 1200
